18 compounds from ChEMBL document CHEMBL4376833, “Influence of Non-natural Cationic Amino Acids on the Biological Activity Profile of Innate Defense Regulator Peptides” (J Med Chem, 2019) can be followed below.

The source made the active and inactive calls. Non-standard residues stand in square brackets, D forms with d. Residues, ends and D or L forms follow the SMILES beside them. hArg = N=C(N)NCCCC[C@H](N)C(=O)O; Agb = N=C(N)NCC[C@H](N)C(=O)O; Agp = N=C(N)NC[C@H](N)C(=O)O; Orn = NCCC[C@H](N)C(=O)O; Dab = NCC[C@H](N)C(=O)O; Dap = NC[C@H](N)C(=O)O

For assay [1], the system named is Staphylococcus aureus. Kind of assay: Antibiofilm activity against methicillin-resistant Staphylococcus aureus assessed as inhibition of biofilm formation incubated for overnight by crystal violet staining based microtiter plate assay. Type of assay: functional, organism-based.
In assay [2] the test system is Staphylococcus aureus. Kind of assay: Antibiofilm activity against methicillin-resistant Staphylococcus aureus assessed as inhibition of biofilm formation by measuring residual biofilm growth incubated for overnight at 10-fold dilution by crystal violet staining based microtiter plate assay relative to control. Format: functional.
Assay [3] concerns Staphylococcus aureus. Put plainly: Antibacterial activity against methicillin-resistant Staphylococcus aureus assessed as alteration in bacterial growth incubated for overnight by microtiter plate based spectrophotometric analysis. Type of assay: functional, organism-based.

`CC[C@H](C)[C@H](NC(=O)[C@H](CC(C)C)NC(=O)[C@H](CCCNC(=N)N)NC(=O)[C@@H](N)C(C)C)C(=O)N[C@@H](CNC(=N)N)C(=O)N[C@@H](C)C(=O)N[C@H](C(=O)N[C@@H](CCCNC(=N)N)C(=O)N[C@H](C(=O)N[C@@H](Cc1c[nH]c2ccccc12)C(=O)N[C@@H](CCCNC(=N)N)C(=O)N[C@@H](CCCNC(=N)N)C(N)=O)[C@@H](C)CC)C(C)C` (H-VRLI[Agp]AVRIWRR-NH2): in the assay on Staphylococcus aureus [1], the inhibition result is “Dose-dependent effect”. Also, the “residual biofilm growth (% of control)” value in the assay on Staphylococcus aureus [2] is 99.9%. Further, the result with Staphylococcus aureus [3] was Active.

In the case of `CC[C@H](C)[C@H](NC(=O)[C@H](CCCNC(=N)N)NC(=O)[C@@H](NC(=O)[C@H](C)NC(=O)[C@@H](NC(=O)[C@@H](NC(=O)[C@H](CCNC(=N)N)NC(=O)[C@H](CCCNC(=N)N)NC(=O)[C@@H](N)C(C)C)[C@@H](C)CC)C(C)C)C(C)C)C(=O)N[C@@H](Cc1c[nH]c2ccccc12)C(=O)N[C@@H](CCCNC(=N)N)C(=O)N[C@@H](CCCNC(=N)N)C(N)=O` (H-VR[Agb]IVAVRIWRR-NH2), the inhibition result with Staphylococcus aureus [1] was “Dose-dependent effect”. In addition, the “residual biofilm growth (% of control)” value in the assay on Staphylococcus aureus [2] came to 99.8%. The outcome in the assay with Staphylococcus aureus [3] was Active.

For the compound `CC[C@H](C)[C@H](NC(=O)[C@H](CC(C)C)NC(=O)[C@H](CCCNC(=N)N)NC(=O)[C@@H](N)C(C)C)C(=O)N[C@@H](CCN)C(=O)N[C@@H](C)C(=O)N[C@H](C(=O)N[C@@H](CCCNC(=N)N)C(=O)N[C@H](C(=O)N[C@@H](Cc1c[nH]c2ccccc12)C(=O)N[C@@H](CCCNC(=N)N)C(=O)N[C@@H](CCCNC(=N)N)C(N)=O)[C@@H](C)CC)C(C)C` (H-VRLI[Dab]AVRIWRR-NH2), the inhibition entry in the assay on Staphylococcus aureus [1] was “Dose-dependent effect”. The “residual biofilm growth (% of control)” value with Staphylococcus aureus [2] is reported as 102.7%. The result in the assay on Staphylococcus aureus [3] was Active.

Take `CC[C@H](C)[C@H](NC(=O)[C@H](CCCNC(=N)N)NC(=O)[C@H](CCN)NC(=O)[C@H](C)NC(=O)[C@@H](NC(=O)[C@@H](NC(=O)[C@H](CC(C)C)NC(=O)[C@H](CCCNC(=N)N)NC(=O)[C@@H](N)C(C)C)[C@@H](C)CC)C(C)C)C(=O)N[C@@H](Cc1c[nH]c2ccccc12)C(=O)N[C@@H](CCCNC(=N)N)C(=O)N[C@@H](CCCNC(=N)N)C(N)=O` (H-VRLIVA[Dab]RIWRR-NH2): the inhibition entry in the assay on Staphylococcus aureus [1] was “Dose-dependent effect”. Besides, in the assay with Staphylococcus aureus [2], the “residual biofilm growth (% of control)” value is reported as 102.5%. Further, in the assay on Staphylococcus aureus [3], the result was Active.

Consider `CC[C@H](C)[C@H](NC(=O)[C@H](CCCNC(=N)N)NC(=O)[C@@H](NC(=O)[C@H](C)NC(=O)[C@@H](NC(=O)[C@@H](NC(=O)[C@H](CC(C)C)NC(=O)[C@H](CCCNC(=N)N)NC(=O)[C@@H](N)C(C)C)[C@@H](C)CC)C(C)C)C(C)C)C(=O)N[C@@H](CN)C(=O)N[C@@H](CCCNC(=N)N)C(=O)N[C@@H](CCCNC(=N)N)C(N)=O` (H-VRLIVAVRI[Dap]RR-NH2), for which, in the assay on Staphylococcus aureus [1], the inhibition entry is “Dose-dependent effect”. The “residual biofilm growth (% of control)” value in the assay on Staphylococcus aureus [2] worked out at 15%. The outcome with Staphylococcus aureus [3] was Active.

Turning to `CC[C@H](C)[C@H](NC(=O)[C@H](CC(C)C)NC(=O)[C@H](CCCNC(=N)N)NC(=O)[C@@H](N)C(C)C)C(=O)N[C@H](C(=O)N[C@@H](C)C(=O)N[C@H](C(=O)N[C@@H](CCCNC(=N)N)C(=O)N[C@@H](CN)C(=O)N[C@@H](Cc1c[nH]c2ccccc12)C(=O)N[C@@H](CCCNC(=N)N)C(=O)N[C@@H](CCCNC(=N)N)C(N)=O)C(C)C)C(C)C` (H-VRLIVAVR[Dap]WRR-NH2), the inhibition result with Staphylococcus aureus [1] was “Dose-dependent effect”. Besides, in the assay on Staphylococcus aureus [2], the “residual biofilm growth (% of control)” value is on record as 51.8%. The result with Staphylococcus aureus [3] was Active.

Regarding `CC[C@H](C)[C@H](NC(=O)[C@H](CCCNC(=N)N)NC(=O)[C@@H](NC(=O)[C@H](C)NC(=O)[C@@H](NC(=O)[C@@H](NC(=O)[C@H](CCCN)NC(=O)[C@H](CCCNC(=N)N)NC(=O)[C@@H](N)C(C)C)[C@@H](C)CC)C(C)C)C(C)C)C(=O)N[C@@H](Cc1c[nH]c2ccccc12)C(=O)N[C@@H](CCCNC(=N)N)C(=O)N[C@@H](CCCNC(=N)N)C(N)=O` (H-VR[Orn]IVAVRIWRR-NH2), the inhibition result with Staphylococcus aureus [1] is “Dose-dependent effect”. Also, in the assay on Staphylococcus aureus [2], the “residual biofilm growth (% of control)” value worked out at 99.3%. In addition, the outcome in the assay with Staphylococcus aureus [3] was Active.

Consider `CC[C@H](C)[C@H](NC(=O)[C@H](CC(C)C)NC(=O)[C@H](CCCNC(=N)N)NC(=O)[C@@H](N)C(C)C)C(=O)N[C@H](C(=O)N[C@@H](C)C(=O)N[C@H](C(=O)N[C@@H](CCCNC(=N)N)C(=O)N[C@@H](CCCCNC(=N)N)C(=O)N[C@@H](Cc1c[nH]c2ccccc12)C(=O)N[C@@H](CCCNC(=N)N)C(=O)N[C@@H](CCCNC(=N)N)C(N)=O)C(C)C)C(C)C` (H-VRLIVAVR[hArg]WRR-NH2), for which the inhibition entry with Staphylococcus aureus [1] was “Dose-dependent effect”. Moreover, in the assay with Staphylococcus aureus [2], the “residual biofilm growth (% of control)” value is on record as 84.7%. For the same compound, the outcome in the assay on Staphylococcus aureus [3] was Active.

Take `CC[C@H](C)[C@H](NC(=O)[C@H](CCCNC(=N)N)NC(=O)[C@@H](NC(=O)[C@H](CCCN)NC(=O)[C@@H](NC(=O)[C@@H](NC(=O)[C@H](CC(C)C)NC(=O)[C@H](CCCNC(=N)N)NC(=O)[C@@H](N)C(C)C)[C@@H](C)CC)C(C)C)C(C)C)C(=O)N[C@@H](Cc1c[nH]c2ccccc12)C(=O)N[C@@H](CCCNC(=N)N)C(=O)N[C@@H](CCCNC(=N)N)C(N)=O` (H-VRLIV[Orn]VRIWRR-NH2): the inhibition result in the assay on Staphylococcus aureus [1] was “Dose-dependent effect”. In addition, in the assay on Staphylococcus aureus [2], the “residual biofilm growth (% of control)” value is 14.2%. In the assay on Staphylococcus aureus [3], the result was Active.

Take `CC[C@H](C)[C@H](NC(=O)[C@H](CCCNC(=N)N)NC(=O)[C@H](CCCCNC(=N)N)NC(=O)[C@H](C)NC(=O)[C@@H](NC(=O)[C@@H](NC(=O)[C@H](CC(C)C)NC(=O)[C@H](CCCNC(=N)N)NC(=O)[C@@H](N)C(C)C)[C@@H](C)CC)C(C)C)C(=O)N[C@@H](Cc1c[nH]c2ccccc12)C(=O)N[C@@H](CCCNC(=N)N)C(=O)N[C@@H](CCCNC(=N)N)C(N)=O` (H-VRLIVA[hArg]RIWRR-NH2): in the assay with Staphylococcus aureus [1], the inhibition result was “Dose-dependent effect”. The “residual biofilm growth (% of control)” value in the assay with Staphylococcus aureus [2] was found to be 107%. Further, the outcome in the assay with Staphylococcus aureus [3] was Active.

Take `CC[C@H](C)[C@H](NC(=O)[C@H](CC(C)C)NC(=O)[C@H](CCCNC(=N)N)NC(=O)[C@@H](N)C(C)C)C(=O)N[C@@H](CN)C(=O)N[C@@H](C)C(=O)N[C@H](C(=O)N[C@@H](CCCNC(=N)N)C(=O)N[C@H](C(=O)N[C@@H](Cc1c[nH]c2ccccc12)C(=O)N[C@@H](CCCNC(=N)N)C(=O)N[C@@H](CCCNC(=N)N)C(N)=O)[C@@H](C)CC)C(C)C` (H-VRLI[Dap]AVRIWRR-NH2): the inhibition result with Staphylococcus aureus [1] was “Dose-dependent effect”. In the assay on Staphylococcus aureus [2], the “residual biofilm growth (% of control)” value is 92%. Also, the outcome in the assay with Staphylococcus aureus [3] was Active.

On to `CC[C@H](C)[C@H](NC(=O)[C@H](CCCNC(=N)N)NC(=O)[C@@H](NC(=O)[C@H](C)NC(=O)[C@@H](NC(=O)[C@@H](NC(=O)[C@H](CC(C)C)NC(=O)[C@H](CCCNC(=N)N)NC(=O)[C@@H](N)C(C)C)[C@@H](C)CC)C(C)C)C(C)C)C(=O)N[C@@H](CCNC(=N)N)C(=O)N[C@@H](CCCNC(=N)N)C(=O)N[C@@H](CCCNC(=N)N)C(N)=O` (H-VRLIVAVRI[Agb]RR-NH2), for which, in the assay with Staphylococcus aureus [1], the inhibition entry is “Dose-dependent effect”. Also, the “residual biofilm growth (% of control)” value in the assay on Staphylococcus aureus [2] worked out at 103.7%. Further, the outcome in the assay on Staphylococcus aureus [3] was Active.

In the case of `CC[C@H](C)[C@H](NC(=O)[C@H](CCCNC(=N)N)NC(=O)[C@@H](NC(=O)[C@H](C)NC(=O)[C@@H](NC(=O)[C@@H](NC(=O)[C@H](CC(C)C)NC(=O)[C@H](CCCNC(=N)N)NC(=O)[C@@H](N)C(C)C)[C@@H](C)CC)C(C)C)C(C)C)C(=O)N[C@@H](Cc1c[nH]c2ccccc12)C(=O)N[C@@H](CCCN)C(=O)N[C@@H](CCCNC(=N)N)C(N)=O` (H-VRLIVAVRIW[Orn]R-NH2), in the assay on Staphylococcus aureus [1], the inhibition entry is “Dose-dependent effect”. Moreover, the “residual biofilm growth (% of control)” value in the assay on Staphylococcus aureus [2] is 12.3%. For the same compound, the outcome in the assay with Staphylococcus aureus [3] was Active.

As to `CC[C@H](C)[C@H](NC(=O)[C@H](CCCNC(=N)N)NC(=O)[C@@H](NC(=O)[C@H](C)NC(=O)[C@@H](NC(=O)[C@@H](NC(=O)[C@H](CC(C)C)NC(=O)[C@H](CCCNC(=N)N)NC(=O)[C@@H](N)C(C)C)[C@@H](C)CC)C(C)C)C(C)C)C(=O)N[C@@H](Cc1c[nH]c2ccccc12)C(=O)N[C@@H](CCN)C(=O)N[C@@H](CCCNC(=N)N)C(N)=O` (H-VRLIVAVRIW[Dab]R-NH2), in the assay with Staphylococcus aureus [2], the result was inactive.

On to `CC[C@H](C)[C@H](NC(=O)[C@H](CCCNC(=N)N)NC(=O)[C@@H](NC(=O)[C@H](C)NC(=O)[C@@H](NC(=O)[C@@H](NC(=O)[C@H](CC(C)C)NC(=O)[C@H](CCCNC(=N)N)NC(=O)[C@@H](N)C(C)C)[C@@H](C)CC)C(C)C)C(C)C)C(=O)N[C@@H](Cc1c[nH]c2ccccc12)C(=O)N[C@@H](CCNC(=N)N)C(=O)N[C@@H](CCCNC(=N)N)C(N)=O` (H-VRLIVAVRIW[Agb]R-NH2), for which the result in the assay with Staphylococcus aureus [2] was inactive.

On to `CC[C@H](C)[C@H](NC(=O)[C@H](CCCNC(=N)N)NC(=O)[C@@H](NC(=O)[C@H](C)NC(=O)[C@@H](NC(=O)[C@@H](NC(=O)[C@H](CC(C)C)NC(=O)[C@H](CCCNC(=N)N)NC(=O)[C@@H](N)C(C)C)[C@@H](C)CC)C(C)C)C(C)C)C(=O)N[C@@H](Cc1c[nH]c2ccccc12)C(=O)N[C@@H](CNC(=N)N)C(=O)N[C@@H](CCCNC(=N)N)C(N)=O` (H-VRLIVAVRIW[Agp]R-NH2), for which the result with Staphylococcus aureus [2] was inactive.

For `CC[C@H](C)[C@H](NC(=O)[C@H](CCCNC(=N)N)NC(=O)[C@@H](NC(=O)[C@H](C)NC(=O)[C@@H](NC(=O)[C@@H](NC(=O)[C@H](CC(C)C)NC(=O)[C@H](CCCNC(=N)N)NC(=O)[C@@H](N)C(C)C)[C@@H](C)CC)C(C)C)C(C)C)C(=O)N[C@@H](Cc1c[nH]c2ccccc12)C(=O)N[C@@H](CCCNC(=N)N)C(=O)N[C@@H](CNC(=N)N)C(N)=O` (H-VRLIVAVRIWR[Agp]-NH2), in the assay with Staphylococcus aureus [2], the result was inactive.

Consider `CC[C@H](C)[C@H](NC(=O)[C@H](CCCNC(=N)N)NC(=O)[C@@H](NC(=O)[C@H](C)NC(=O)[C@@H](NC(=O)[C@@H](NC(=O)[C@H](CC(C)C)NC(=O)[C@H](CCCNC(=N)N)NC(=O)[C@@H](N)C(C)C)[C@@H](C)CC)C(C)C)C(C)C)C(=O)N[C@@H](Cc1c[nH]c2ccccc12)C(=O)N[C@@H](CCCNC(=N)N)C(=O)N[C@@H](CCN)C(N)=O` (H-VRLIVAVRIWR[Dab]-NH2), for which the outcome in the assay on Staphylococcus aureus [2] was inactive.
